The subject of the first assay is HIV-1. Kind of assay: HIV-1 single-round infectious luciferase reporter virus (pseudotype) assay in HeLa CD4 CCR5 cells. In kind it is cell-based. The conditions noted are these: Human immunodeficiency virus 1, HeLa-CD4/CCR5, read-out: EC50 Group from TABLE 1, HeLa CD4 CCR5 cells, single-round infectious luciferase reporter virus. The gist of the method: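 HeLa CD4 CCR5 cells (5×10^4/well, DMEM + 10% FBS) were treated with compound (final <10 μM) and infected with single-round luciferase reporter virus made in 293 cells, at MOI ~0.01. Luciferase was read 72 h post infection. EC50 came from 10-concentration percent-inhibition curves fitted to a four-parameter logistic model.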
In the case of `CC(C)(C)OC(=O)N1CCN(C(=O)C(=O)c2c[nH]c3c(-c4cnccn4)ncc(Cl)c23)CC1` [Example 165], the EC50 was less than 1000 nM.

As to `O=C(C(=O)N1CCN(C(=O)c2ccc(Br)o2)CC1)c1c[nH]c2c(-c3ncon3)ncc(F)c12` [Example 167], the EC50 was less than 1000 nM.

For the compound `COc1cnc(-c2cnc(NC(=O)c3ccncc3)s2)c2[nH]cc(C(=O)C(=O)N3CCN(C(=O)c4ccccc4)CC3)c12` [Example 169], the EC50 was less than 1000 nM.

On to `COc1cnc(-c2cnc(C)nc2)c2[nH]cc(C(=O)C(=O)N3CCN(C(=O)c4ccccc4)CC3)c12` [Example 171, 1-benzoyl-4-[(4-methoxy-7-(2-methyl-pyrimidin-5-yl)-6-azaindol-3-yl)-oxoacetyl]piperazine], for which the concentration giving a half-maximal response (EC50) is less than 1000 nM.

Take `COc1cnc(-c2ccc3[nH]ccc3c2)c2[nH]cc(C(=O)C(=O)N3CCN(C(=O)c4ccccn4)CC3)c12` [Example 172, 1-picolinoyl-4-[(4-methoxy-7-(indol-5-yl)-6-azaindol-3-yl)-oxoacetyl]piperazine]: the concentration for a half-maximal effect (EC50) is less than 1000 nM.

Consider `COc1cnc(-c2cscn2)c2[nH]cc(C(=O)C(=O)N3CCN(C(=O)c4ccccn4)CC3)c12` [Example 173, 1-picolinoyl-4-[(4-methoxy-7-(thiazol-4-yl)-6-azaindol-3-yl)-oxoacetyl]piperazine], for which the EC50 was less than 1000 nM.

For `COc1cnc(-c2cscn2)c2[nH]cc(C(=O)C(=O)N3CCN(C(=O)c4ccccc4)CC3)c12` [Example 174, 1-benzoyl-4-[(4-methoxy-7-(thiazol-4-yl)-6-azaindol-3-yl)-oxoacetyl]piperazine], the EC50 was less than 1000 nM.

As to `CCN(CC)CCN(C)c1cnc(-c2ncc(OC)c3c(C(=O)C(=O)N4CCN(C(=O)c5ccccc5)CC4)c[nH]c23)cn1` [Example 175, 1-benzoyl-4-[(4-methoxy-7-(2-(N-diethylaminoethyl-N-methyl)aminopyrazin-S-yl)-6-azaindol-3-yl)-oxoacetyl]piperazine], the EC50 is less than 1000 nM.

With `COc1cnc(-c2cnc(N(C)CCN(C)C)cn2)c2[nH]cc(C(=O)C(=O)N3CCN(C(=O)c4ccccc4)CC3)c12` [Example 176, 1-benzoyl-4-[(4-methoxy-7-(2-(N-dimethylaminoethyl-N-methyl)aminopyrazin-S-yl)-6-azaindol-3-yl)-oxoacetyl]piperazine], the EC50 is less than 1000 nM.

With `COc1cnc(-c2cnc(N3CCNCC3)cn2)c2[nH]cc(C(=O)C(=O)N3CCN(C(=O)c4ccccc4)CC3)c12` [Example 177, 1-benzoyl-4-[(4-methoxy-7-(2-(N-piperazinyl)-pyrazin-5-yl)-6-azaindol-3-yl)-oxoacetyl]piperazine], the EC50 is less than 1000 nM.

For `COc1cnc(-c2cnc(N3CCOCC3)cn2)c2[nH]cc(C(=O)C(=O)N3CCN(C(=O)c4ccccc4)CC3)c12` [Example 178, 1-benzoyl-4-[(4-methoxy-7-(2-(4-morpholinyl)-pyrazin-5-yl)-6-azaindol-3-yl)-oxoacetyl]piperazine], the half-maximal effective concentration (EC50) was less than 1000 nM.

In the case of `CCNc1cnc(-c2ncc(OC)c3c(C(=O)C(=O)N4CCN(C(=O)c5ccccn5)CC4)c[nH]c23)cn1` [Example 179, 1-picolinoyl-4-[(4-methoxy-7-(2-ethylaminopyrazin-5-yl)-6-azaindol-3-yl)-oxoacetyl]piperazine], the EC50 was less than 1000 nM.

For the compound `COc1cnc(-c2cnc(C)cn2)c2[nH]cc(C(=O)C(=O)N3CCN(C(=O)c4ccccn4)CC3)c12` [Example 180, 1-picolinoyl-4-[(4-methoxy-7-(2-methylpyrazin-5-yl)-6-azaindol-3-yl)-oxoacetyl]piperazine], the EC50 is less than 1000 nM.

In the case of `COc1cnc(-c2cnc(C3CC3)cn2)c2[nH]cc(C(=O)C(=O)N3CCN(C(=O)c4ccccn4)CC3)c12` [Example 181, 1-picolinoyl-4-[(4-methoxy-7-(2-cyclopropanyl-pyrazin-5-yl)-6-azaindol-3-yl)-oxoacetyl]piperazine], the 50% effective concentration (EC50) was less than 1000 nM.

As to `COc1cnc(-c2ncc(OC)c3c(C(=O)C(=O)N4CCN(C(=O)c5ccccn5)CC4)c[nH]c23)cn1` [Example 182, 1-picolinoyl-4-[(4-methoxy-7-(2-methoxy-pyrazin-5-yl)-6-azaindol-3-yl)-oxoacetyl]piperazine], the EC50 was less than 1000 nM.

For `COc1cnc(-c2cc3ccccc3o2)c2[nH]cc(C(=O)C(=O)N3CCN(C(=O)c4ccccn4)CC3)c12` [Example 183, 1-picolinoyl-4-[(4-methoxy-7-(benzofuran-2-yl)-6-azaindol-3-yl)-oxoacetyl]piperazine], the EC50 is less than 1000 nM.

In the case of `CCN(CC)C(=O)c1cnc(-c2ncc(OC)c3c(C(=O)C(=O)N4CCN(C(=O)c5ccccn5)CC4)c[nH]c23)cn1` [Example 184, 1-picolinoyl-4-[(4-methoxy-7-(2-diethylaminocarbonyl-pyrazin-5-yl)-6-azaindol-3-yl)-oxoacetyl]piperazine], the EC50 is less than 1000 nM.

For `COc1cnc(-c2cnc(N3CCCC3)cn2)c2[nH]cc(C(=O)C(=O)N3CCN(C(=O)c4ccccn4)CC3)c12` [Example 185], the EC50 is less than 1000 nM.

As for `COc1cnc(-c2cnc3ccccc3n2)c2[nH]cc(C(=O)C(=O)N3CCN(C(=O)c4ccccn4)CC3)c12` [Example 186, 1-picolinoyl-4-[(4-methoxy-7-(quinoxakin-2-yl)-6-azaindol-3-yl)-oxoacetyl]piperazine], the EC50 is less than 1000 nM.

With `COc1cnc(-n2ccc(C(F)(F)F)n2)c2[nH]cc(C(=O)C(=O)N3CCN(C(=O)c4ccccc4)CC3)c12` [Example 192, 1-benzoyl-4-[(4-methoxy-7-(3-trifluoromethylpyrazol-1-yl)-6-azaindol-3-yl)-oxoacetyl]piperazine], the EC50 was less than 1000 nM.

As to `COc1cnc(-c2cnccn2)c2[nH]cc(C(=O)C(=O)N3CCN(C(=O)c4cnccn4)CC3)c12` [Example 195], the EC50 was less than 1000 nM.

For `COc1cnc(-c2cnccn2)c2[nH]cc(C(=O)C(=O)N3CCN(C(=O)c4ccno4)CC3)c12` [Example 196], the concentration for a half-maximal effect (EC50) is less than 1000 nM.

For the compound `COc1cnc(-c2cnccn2)c2[nH]cc(C(=O)C(=O)N3CCN(C(=O)c4csnn4)CC3)c12` [Example 197], the EC50 was less than 1000 nM.

Take `COc1cnc(-c2cnccn2)c2[nH]cc(C(=O)C(=O)N3CCN(C(=O)c4nc(N)n[nH]4)CC3)c12` [Example 198]: the EC50 is less than 1000 nM.

Regarding `CCCOC(=O)N1CCN(C(=O)C(=O)c2c[nH]c3c(-c4cnccn4)ncc(OC)c23)CC1` [Example 199], the EC50 was less than 1000 nM.

As to `COc1cnc(-c2cnccn2)c2[nH]cc(C(=O)C(=O)N3CCN(C(=O)c4ncccc4C)CC3)c12` [Example 200], the EC50 was less than 1000 nM.

In the case of `COc1cnc(-c2cnccn2)c2[nH]cc(C(=O)C(=O)N3CCN(C(=O)c4cccc(C)n4)CC3)c12` [Example 201], the EC50 was less than 1000 nM.

Staying with this assay, now noted: Human immunodeficiency virus 1, HeLa-CD4/CCR5, read-out: EC50 Group from Table 1, Table 2-1; HeLa CD4 CCR5 cells, single-round luciferase reporter virus.
For `COc1cnc(-c2cnccn2)c2[nH]cc(C(=O)C(=O)N3CCN(C(=O)c4ccccn4)C(C)C3)c12` (centres unmarked) [Example 194, 2-methyl-1-picolinoyl-4-[(4-methoxy-7-(pyrazin-2-yl)-6-azaindol-3-yl)-oxoacetyl]piperazine], the EC50 was less than 1000 nM.

The assay is the same for the next values; noted with them: Human immunodeficiency virus 1, HeLa-CD4/CCR5, read-out: EC50 Group from Table 1, Table 4; HeLa CD4 CCR5 cells, single-round luciferase reporter virus.
On to `C[C@@H]1CN(C(=O)c2ccccc2)CCN1C(=O)C(=O)c1c[nH]c2c(C(=O)c3cccs3)ccnc12` [Example 168, 1-benzoyl-3-(R)-methyl-4-[(7-(2-thienylcarbonyl)-4-azaindol-3-yl)-oxoacetyl]piperazine], for which the EC50 is less than 1000 nM.

The term EC50 denotes the concentration that produces a half-maximal response.

For the origin of these results see US20050090522A1 (priority 2001, published 2005).
